{
  "source": "patent US8758769B2",
  "about": "“Composition for preventing and treating acetaminophen inducing liver injury comprising the protein extract from Porphyra yezoensis” (Pukyong National University Industry Academic Cooperation …, priority 2006, dated 2014)",
  "system": "DNA within the liver tissue",
  "assay": "DNA fragmentation in the liver tissue",
  "type": "in vivo, rat",
  "settings": "rats, AAP 700 mg/kg",
  "source_text": "To confirm the modes of the cell apoptosis, DNA within the liver tissue is extracted and then the degree of fragmentation is examined.",
  "data": [
    {"smiles": "CC(=O)Nc1ccc(O)cc1", "note": "[AAP, Acetaminophen]", "values": [
      {"measurement": "DNA fragmentation in the liver tissue (FIG. 6(B))", "value": "a certain DNA fraction is observed"}
    ]}
  ]
}
